Where two headings read alike, the source gives them in different places.
Experiments:
HIV-1 fusion = assay: gp160 induced cell-cell fusion assay (HeLa P4 / CHO-Tat10); type: cell-based; settings: Human immunodeficiency virus 1, HeLaP4, read-out: IC50 against HIV-1 fusion (gp160 induced cell-cell fusion)
Experimental: The gp160 induced cell-cell fusion assay uses a HeLa P4 cell line and a CHO-Tat10 cell line.
The HeLa P4 cell line expresses CCR5 and CD4 and has been transfected with HIV-1 LTR-β-Galactosidase. The media for this cell line is Dulbecco modified eagle's medium (D-MEM) (without L-glutamine) containing 10% foetal calf serum (FCS), 2 mM L-glutamine penicillin/streptomycin (Pen/Strep; 100 U/mL penicillin+[…] streptomycin), and 1 μg/ml puromycin.
The CHO cell line is a Tat (transcriptional trans activator)-expressing clone from a CHO JRR17.1 cell line that has been transfected with pTat puro plasmid. […]
Upon cell fusion, Tat present in the CHO cell is able to transactivate the HIV-1 long terminal repeat (LTR) present in the HeLa cell leading to the expression of the β-Galactosidase enzyme. This expression is then measured using a Fluor Ace™ β-Galactosidase reporter assay kit (Bio-Rad cat no. 170-3150). This kit is a quantitative fluorescent assay that determines the level of expression of β-galactosidase using 4-methylumbelliferul-galactopyranoside (MUG) as substrate. β-Galactosidase hydrolyses the fluorogenic substrate resulting in release of the fluorescent molecule 4-methylumbelliferone (4 MU). Fluorescence of 4-methylumbelliferone is then measured on a fluorometer using an excitation wavelength of 360 nm and emission wavelength of 460 nm. […]

CCR5 = CCR5 (Homo sapiens, UniProt P51681); assay: assay for CCR5 binding according to Combadiere et al
Text: Biol., 60, 147-52 (1996); and/or by using the intracellular calcium mobilisation assays as described by the same authors. Cell lines expressing the receptor of interest include those naturally expressing the receptor, such as PM-1, or IL-2 stimulated peripheral blood lymphocytes (PBL), or a cell engineered to express a recombinant receptor, such as CHO, 300.19, L1.2 or HEK-293.

Chain of CCR5 (P51681 whole entry): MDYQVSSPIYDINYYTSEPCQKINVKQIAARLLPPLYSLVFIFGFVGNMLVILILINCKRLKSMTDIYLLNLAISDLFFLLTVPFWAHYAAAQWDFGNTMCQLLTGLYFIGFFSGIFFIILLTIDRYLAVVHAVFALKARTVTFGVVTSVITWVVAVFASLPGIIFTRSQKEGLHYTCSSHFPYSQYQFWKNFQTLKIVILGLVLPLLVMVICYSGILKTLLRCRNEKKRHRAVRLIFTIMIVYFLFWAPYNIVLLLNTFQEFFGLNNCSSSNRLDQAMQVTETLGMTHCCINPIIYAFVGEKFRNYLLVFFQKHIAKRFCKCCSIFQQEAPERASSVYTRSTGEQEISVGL

CC(=O)N[C@@H](CCN1[C@@H]2CC[C@H]1C[C@@H](n1c(C)nc3c1CCN(C(C)=O)C3)C2)c1cccc(F)c1 [Example 1, N-{(1S)-3-[3-endo-(5-Acetyl-2-methyl-4,5,6,7-tetrahydro-1H-imidazo[4,5-c]pyridin-1-yl)-8-azabicyclo[3.2.1]oct-8-yl]-1-(3-fluorophenyl)propyl}acetamide]
IC50 (HIV-1 fusion): 0.13 nM

CC(=O)N[C@@H](CCN1[C@@H]2CC[C@H]1C[C@@H](n1c(C)nc3c1CCN(C(=O)C(C)C)C3)C2)c1cccc(F)c1 [Example 4, N-{(1S)-3-[3-endo-(5-Isobutyryl-2-methyl-4,5,6,7-tetrahydro-1H-imidazo[4,5-c]pyridin-1-yl)-8-azabicyclo[3.2.1]oct-8-yl]-1-(3-fluorophenyl)propyl}acetamide]
IC50 (CCR5; ligand MIP-1α, read-out: IC50 CCR5 binding (MIP-1α)): 7.5 nM | IC50 (CCR5; ligand MIP-1β, read-out: IC50 CCR5 binding (MIP-1β)): 7.3 nM | IC50 (CCR5; ligand RANTES, read-out: IC50 CCR5 binding (RANTES)): 6.7 nM

CCC(=O)N1CCc2c(nc(C)n2[C@H]2C[C@H]3CC[C@@H](C2)N3CC[C@H](NC(C)=O)c2cccc(F)c2)C1 [Example 5, N-{(1S)-3-[3-endo-(2-Methyl-5-propionyl-4,5,6,7-tetrahydro-1H-imidazo[4,5-c]pyridin-1-yl)-8-azabicyclo[3.2.1]oct-8-yl]-1-(3-fluorophenyl)propyl}acetamide]
IC50 (CCR5; IC50 CCR5 binding (MIP-1α), ligand MIP-1α): 2.7 nM | IC50 (CCR5; IC50 CCR5 binding (MIP-1β), ligand MIP-1β): 2.4 nM | IC50 (CCR5; IC50 CCR5 binding (RANTES), ligand RANTES): 1.9 nM | IC50 (HIV-1 fusion): 0.12 nM
